Assays:
[1] = biological target: D-amino acid oxidase (DAAO) (Homo sapiens, UniProt P14920); experiment: DAAO enzymatic assay; type: biochemical; conditions: 5 mM D-serine, pH 8.5
Description: A reaction mixture for the DAAO assay, with a final volume of 100 µL was made with 1 µL 2 times serially diluted α12G (4 µM to 7.8 nM), 45 µM FAD, 10 units of HRP, 60 ng DAAO, 10 mM Amplex Red^TM, 5 mM D-serine, and 100 mM Tris HCl (pH = 8.5). All reactions were performed in duplicates. The fluorescence was detected by a fluorometric meter (TECAN Infinite 200). The racemization percentage was calculated as follows: activity % = (Fsample, 20 min − Fsample, 0 min)/(Fblank, 20 min − Fblank, 0 min) × 100%.

hSR = biological target: T1, hSR (Homo sapiens, UniProt Q9GZT4); experiment: Intrinsic tryptophan fluorescence (ITF) binding assay; conditions: 0.25 mM ATP, Hill slope model
T1 construct: 6xHis (C); made in house; host or cells: E. coli BL21 (pET42b-hSR)
T1 sequence (Q9GZT4 1-340): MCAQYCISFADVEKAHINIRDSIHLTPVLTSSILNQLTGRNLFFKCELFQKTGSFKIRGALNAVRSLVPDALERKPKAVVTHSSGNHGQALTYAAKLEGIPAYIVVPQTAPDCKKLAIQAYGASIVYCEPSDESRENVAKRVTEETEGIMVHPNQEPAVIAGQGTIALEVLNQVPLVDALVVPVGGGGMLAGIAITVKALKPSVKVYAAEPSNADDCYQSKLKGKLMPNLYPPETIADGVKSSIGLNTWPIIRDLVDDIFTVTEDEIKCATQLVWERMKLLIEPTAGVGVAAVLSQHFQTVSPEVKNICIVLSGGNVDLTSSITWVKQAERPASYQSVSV
Description: First, 30 µL of 2 µM hSR protein was added into 270 µL buffer (100 mM Tris-HCl, pH 8.0, 1 mM MgCl2, 0.25 mM ATP, 50 µM PLP, 10% DMSO) with ligand and subsequently reacted for 20 min at room temperature. All samples were measured in triplicates and excited at 282 nm. The emission spectra were measured with a 5 nm bandwidth resolution at 300 to 400 nm wavelengths by a Varioskan™ LUX multimode microplate reader (Thermo Fisher Scientific, Lagoas Park, Porto Salvo, Portugal). The fluorescence intensity collected at 304 nm was analyzed using GraphPad Prism 8 software (Dotmatics, Boston, MA, USA). The dissociation constant (Kd) was derived by specific binding with the Hill slope model: Y = Bmax × X^n/(Kd^n + X^n), with X being the ligand concentration, maximum number of binding sites (Bmax) being the maximum specific binding, and n being Hill slope.
The Hill coefficient (n) of 1.28 is close to n = 1, indicating a noncooperative binding.

[2] = test system: MK-801-induced memory impairment; experiment: Novel object recognition test in MK-801-treated mice; type: in vivo, C57BL/6J male mice; conditions: 10 mg/kg oral, 0.2 mg/kg MK-801 IP; p < 0.01, n = 8
Description: For behavioral studies, α12G was dissolved in 35% PEG-400 and administrated by oral gavage 20 min prior to the MK-801 insult. MK-801 (Sigma-Aldrich, St. Louis, MO, USA) was administrated via intraperitoneal (IP) injection 20 min prior to the behavioral tests, with the dosage of 0.2 mg/kg for the open field test and novel object recognition test and 0.3 mg/kg for the prepulse inhibition test.
C57BL/6J male mice were randomly assigned into five groups, 6–8 mice per group, (1) saline control, (2) MK-801, (3) 1 mg/kg α12G + MK-801, (4) 3 mg/kg α12G + MK-801, and (5) 10 mg/kg α12G + MK-801. A novel object recognition test (NOR) was conducted in a square chamber (40 × 40 × 40 cm) under 15–20 lux light intensity, and a digital camera was used to record the behaviors. The test consisted of two sessions. In session I, mice were allowed to explore the chamber with two identical objects (yellow square Lego bricks) for 5 min and were then moved to the home cage for 5 min. In session II, mice were allowed to explore the chamber with one object kept the same (familiar object) and the other replaced with a novel object (blue circular bottle cap) for 10 min. The interaction of mice with both the objects (familiar vs. novel) was recorded, and the discrimination index was calculated with the following formula:Discrimination index = Time (novel object) − Time (familiar object)/Total exploring time

Chain of D-amino acid oxidase (DAAO) (P14920 whole entry, species assumed): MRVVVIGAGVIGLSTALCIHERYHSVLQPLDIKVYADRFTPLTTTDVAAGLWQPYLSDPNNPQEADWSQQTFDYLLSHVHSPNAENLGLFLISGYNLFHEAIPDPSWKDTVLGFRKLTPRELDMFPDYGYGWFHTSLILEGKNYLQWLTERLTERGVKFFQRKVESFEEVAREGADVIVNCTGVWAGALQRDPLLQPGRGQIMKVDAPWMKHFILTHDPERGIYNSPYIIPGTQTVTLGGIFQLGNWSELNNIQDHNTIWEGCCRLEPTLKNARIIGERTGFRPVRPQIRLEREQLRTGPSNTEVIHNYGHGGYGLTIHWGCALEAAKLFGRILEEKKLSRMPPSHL

## O=C(Oc1cc(C(=O)Oc2cc(C(=O)O[C@H]3OC[C@@H](OC(=O)c4cc(O)c(O)c(OC(=O)c5cc(O)c(O)c(OC(=O)c6cc(O)c(O)c(O)c6)c5)c4)[C@H](OC(=O)c4cc(O)c(O)c(OC(=O)c5cc(O)c(O)c(OC(=O)c6cc(O)c(O)c(O)c6)c5)c4)[C@H]3OC(=O)c3cc(O)c(O)c(OC(=O)c4cc(O)c(O)c(OC(=O)c5cc(O)c(O)c(O)c5)c4)c3)cc(O)c2O)cc(O)c1O)c1cc(O)c(O)c(O)c1 [α12G, (2R,3R,4S,5R)-tetrahydro-2H-pyran-2,3,4,5-tetrayl tetrakis(3-((3,4-dihydroxy-5-((3,4,5-trihydroxybenzoyl)oxy)benzoyl)ox)-4,5-dihydroxybenzoate)]
[1]
  IC50: 160 nM
hSR
  Bmax: 96.86 fmol/mg
hSR; read-out: binding affinity (Kd)
  Kd: 240 nM
[2]
  Effect on MK-801-induced memory impairment (novel object recognition): attenuated this MK-801-induced memory impairment

Source: paper PMC11048566, “The Development of a Regulator of Human Serine Racemase for N-Methyl-D-aspartate Function” (Biomedicines, 2024)
